Reference: patent US9708314B2, “Heterocyclic amide compound” (NISSAN CHEMICAL INDUSTRIES, LTD., priority 2013, dated 2017)

Columns and labels:
Assay type in all cases: in vivo
[1] = system: Apera spica-venti.; assay: Test Example 4: herbicidal effect by application to foliage (diluvial soil, plastic box); details: for L (Apera spica-venti.) herbicidal effect grade: Application herbicide amount 320 g/ha, foliage application
Method in brief: (§1)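 Scores run from 0 (herbicidal ratio ≤5%) to 5 (≥90%, almost fully withered) and were assessed three weeks after foliar spraying. Seedlings had been raised for 14 days at 25-30° C in sterilized diluvial soil before treatment, with the emulsion diluted in water to the stated g/ha dose.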

[2] = system: Digitaria ciliaris; assay: as above; details: for F (Digitaria ciliaris) herbicidal effect grade: Application herbicide amount 320 g/ha, foliage application
Method in brief: as §1

[3] = system: Veronica persica; assay: as above; details: for R (Veronica persica) herbicidal effect grade: Application herbicide amount 320 g/ha, foliage application
Method in brief: as §1

[4] = system: Stellaria media; assay: as above; details: for P (Stellaria media) herbicidal effect grade: Application herbicide amount 320 g/ha, foliage application
Method in brief: as §1

[5] = system: Setaria viridis; assay: as above; details: for G (Setaria viridis) herbicidal effect grade: Application herbicide amount 320 g/ha, foliage application
Method in brief: as §1

[6] = system: Amaranthus retroflexus; assay: as above; details: for N (Amaranthus retroflexus) herbicidal effect grade: Application herbicide amount 320 g/ha, foliage application
Method in brief: as §1

[7] = system: Alopecurus myosuroides; assay: as above; details: for J (Alopecurus myosuroides) herbicidal effect grade: Application herbicide amount 320 g/ha, foliage application
Method in brief: as §1

[8] = system: Chenopodium album; assay: as above; details: for O (Chenopodium album) herbicidal effect grade: Application herbicide amount 320 g/ha, foliage application
Method in brief: as §1

[9] = system: Abutilon theophrasti; assay: as above; details: for M (Abutilon theophrasti) herbicidal effect grade: Application herbicide amount 320 g/ha, foliage application
Method in brief: as §1

[10] = system: Leptochloa chinensis; assay: Test Example 3: herbicidal effect by application to foliage (Wagner pot, water depth 0.1-0.5 cm); details: Nineteenth Table; application to foliage; application herbicide amount 320 g/ha
Method in brief: (§2)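 Scores (0–5) reflect herbicidal ratio three weeks after a foliar spray: 0 is 5% or less, 5 is 90% or more. Plants had grown 14 days in alluvial soil pots in a 25–30 °C greenhouse before treatment with water-diluted emulsion at a set g/ha.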

[11] = system: Cyperus difformis; assay: as above; details: Nineteenth Table; application to foliage; application herbicide amount 320 g/ha
Method in brief: as §2

[12] = system: Echinochloa crus-galli var. crus-galli; assay: as above; details: Nineteenth Table; application to foliage; application herbicide amount 320 g/ha
Method in brief: as §2

[13] = application to foliage, application herbicide amount 320 g/ha

CCCSc1nnc2c(C(=O)Nc3nnco3)ccc(C(F)(F)F)n12 [1-108]
L (Apera spica-venti.) herbicidal effect grade [1]: 2 (Herbicidal ratio of 20% or more and less than 40%)
F (Digitaria ciliaris) herbicidal effect grade [2]: 5 (Herbicidal ratio of 90% or more (almost completely withered))
R (Veronica persica) herbicidal effect grade [3]: 5 (Herbicidal ratio of 90% or more (almost completely withered))
P (Stellaria media) herbicidal effect grade [4]: 5 (Herbicidal ratio of 90% or more (almost completely withered))
G (Setaria viridis) herbicidal effect grade [5]: 5 (Herbicidal ratio of 90% or more (almost completely withered))
N (Amaranthus retroflexus) herbicidal effect grade [6]: 5 (Herbicidal ratio of 90% or more (almost completely withered))
J (Alopecurus myosuroides) herbicidal effect grade [7]: 1 (Herbicidal ratio of 5% or more and less than 20%)
O (Chenopodium album) herbicidal effect grade [8]: 5 (Herbicidal ratio of 90% or more (almost completely withered))
M (Abutilon theophrasti) herbicidal effect grade [9]: 4 (Herbicidal ratio of 70% or more and less than 90%)
D (herbicidal effect grade) [10]: 5 (Herbicidal ratio of 90% or more (almost completely withered))
E (herbicidal effect grade) [11]: 5 (Herbicidal ratio of 90% or more (almost completely withered))
H (herbicidal effect grade) [12]: 5 (Herbicidal ratio of 90% or more (almost completely withered))

COc1cc(OC)cc(-c2nnc3c(C(=O)Nc4nnco4)ccc(C(F)(F)F)n23)c1 [1-148]
L (Apera spica-venti.) herbicidal effect grade [1]: 2 (Herbicidal ratio of 20% or more and less than 40%)
F (Digitaria ciliaris) herbicidal effect grade [2]: 4 (Herbicidal ratio of 70% or more and less than 90%)
R (Veronica persica) herbicidal effect grade [3]: 5 (Herbicidal ratio of 90% or more (almost completely withered))
P (Stellaria media) herbicidal effect grade [4]: 5 (Herbicidal ratio of 90% or more (almost completely withered))
G (Setaria viridis) herbicidal effect grade [5]: 3 (Herbicidal ratio of 40% or more and less than 70%)
N (Amaranthus retroflexus) herbicidal effect grade [6]: 5 (Herbicidal ratio of 90% or more (almost completely withered))
J (Alopecurus myosuroides) herbicidal effect grade [7]: 1 (Herbicidal ratio of 5% or more and less than 20%)
O (Chenopodium album) herbicidal effect grade [8]: 5 (Herbicidal ratio of 90% or more (almost completely withered))
M (Abutilon theophrasti) herbicidal effect grade [9]: 3 (Herbicidal ratio of 40% or more and less than 70%)
D (herbicidal effect grade) [10]: 5 (Herbicidal ratio of 90% or more (almost completely withered))
E (herbicidal effect grade) [11]: 5 (Herbicidal ratio of 90% or more (almost completely withered))
H (herbicidal effect grade) [12]: 5 (Herbicidal ratio of 90% or more (almost completely withered))

CCOc1nnc2c(C(=O)Nc3nnco3)ccc(C(F)(F)F)n12 [1-112]
L (Apera spica-venti.) herbicidal effect grade [1]: 0 (Herbicidal ratio of 5% or less (almost no effect))
F (Digitaria ciliaris) herbicidal effect grade [2]: 1 (Herbicidal ratio of 5% or more and less than 20%)
R (Veronica persica) herbicidal effect grade [3]: 5 (Herbicidal ratio of 90% or more (almost completely withered))
P (Stellaria media) herbicidal effect grade [4]: 4 (Herbicidal ratio of 70% or more and less than 90%)
G (Setaria viridis) herbicidal effect grade [5]: 0 (Herbicidal ratio of 5% or less (almost no effect))
N (Amaranthus retroflexus) herbicidal effect grade [6]: 4 (Herbicidal ratio of 70% or more and less than 90%)
J (Alopecurus myosuroides) herbicidal effect grade [7]: 0 (Herbicidal ratio of 5% or less (almost no effect))
O (Chenopodium album) herbicidal effect grade [8]: 5 (Herbicidal ratio of 90% or more (almost completely withered))
M (Abutilon theophrasti) herbicidal effect grade [9]: 3 (Herbicidal ratio of 40% or more and less than 70%)
D (herbicidal effect grade) [10]: 2 (Herbicidal ratio of 20% or more and less than 40%)
E (herbicidal effect grade) [11]: 1 (Herbicidal ratio of 5% or more and less than 20%)
H (herbicidal effect grade) [12]: 3 (Herbicidal ratio of 40% or more and less than 70%)

Cc1nnc(NC(=O)c2ccc(C(F)(F)F)n3c(C4(C)CC4(Cl)Cl)nnc23)o1 (stereo not drawn) [1-105]
L (Apera spica-venti.) herbicidal effect grade [1]: 1 (Herbicidal ratio of 5% or more and less than 20%)
F (Digitaria ciliaris) herbicidal effect grade [2]: 4 (Herbicidal ratio of 70% or more and less than 90%)
R (Veronica persica) herbicidal effect grade [3]: 3 (Herbicidal ratio of 40% or more and less than 70%)
P (Stellaria media) herbicidal effect grade [4]: 4 (Herbicidal ratio of 70% or more and less than 90%)
G (Setaria viridis) herbicidal effect grade [5]: 1 (Herbicidal ratio of 5% or more and less than 20%)
N (Amaranthus retroflexus) herbicidal effect grade [6]: 3 (Herbicidal ratio of 40% or more and less than 70%)
J (Alopecurus myosuroides) herbicidal effect grade [7]: 1 (Herbicidal ratio of 5% or more and less than 20%)
O (Chenopodium album) herbicidal effect grade [8]: 5 (Herbicidal ratio of 90% or more (almost completely withered))
M (Abutilon theophrasti) herbicidal effect grade [9]: 3 (Herbicidal ratio of 40% or more and less than 70%)
D (herbicidal effect grade) [10]: 5 (Herbicidal ratio of 90% or more (almost completely withered))
E (herbicidal effect grade) [11]: 5 (Herbicidal ratio of 90% or more (almost completely withered))
H (herbicidal effect grade) [12]: 5 (Herbicidal ratio of 90% or more (almost completely withered))

CSc1nnc2c(C(=O)Nc3nnnn3C)ccc(C(F)(F)F)n12 [2-013]
L: herbicidal effect on Apera spica-venti. [1, 13]: 4 (Herbicidal ratio of 70% or more and less than 90%)
F: herbicidal effect on Digitaria ciliaris [2, 13]: 5 (Herbicidal ratio of 90% or more (almost completely withered))
R: herbicidal effect on Veronica persica [3, 13]: 4 (Herbicidal ratio of 70% or more and less than 90%)
P: herbicidal effect on Stellaria media [4, 13]: 5 (Herbicidal ratio of 90% or more (almost completely withered))
G: herbicidal effect on Setaria viridis [5, 13]: 5 (Herbicidal ratio of 90% or more (almost completely withered))
N: herbicidal effect on Amaranthus retroflexus [6, 13]: 5 (Herbicidal ratio of 90% or more (almost completely withered))
J: herbicidal effect on Alopecurus myosuroides [7, 13]: 3 (Herbicidal ratio of 40% or more and less than 70%)
O: herbicidal effect on Chenopodium album [8, 13]: 5 (Herbicidal ratio of 90% or more (almost completely withered))
M: herbicidal effect on Abutilon theophrasti [9, 13]: 5 (Herbicidal ratio of 90% or more (almost completely withered))
D (herbicidal effect grade) [10]: 5 (Herbicidal ratio of 90% or more (almost completely withered))
E (herbicidal effect grade) [11]: 5 (Herbicidal ratio of 90% or more (almost completely withered))
H (herbicidal effect grade) [12]: 5 (Herbicidal ratio of 90% or more (almost completely withered))

O=C(Nc1nnco1)c1ccc(C(F)(F)F)n2c(N3CCCC3)nnc12 [1-139]
L (Apera spica-venti.) herbicidal effect grade [1]: 0 (Herbicidal ratio of 5% or less (almost no effect))
F (Digitaria ciliaris) herbicidal effect grade [2]: 5 (Herbicidal ratio of 90% or more (almost completely withered))
R (Veronica persica) herbicidal effect grade [3]: 5 (Herbicidal ratio of 90% or more (almost completely withered))
P (Stellaria media) herbicidal effect grade [4]: 5 (Herbicidal ratio of 90% or more (almost completely withered))
G (Setaria viridis) herbicidal effect grade [5]: 3 (Herbicidal ratio of 40% or more and less than 70%)
N (Amaranthus retroflexus) herbicidal effect grade [6]: 4 (Herbicidal ratio of 70% or more and less than 90%)
J (Alopecurus myosuroides) herbicidal effect grade [7]: 0 (Herbicidal ratio of 5% or less (almost no effect))
O (Chenopodium album) herbicidal effect grade [8]: 5 (Herbicidal ratio of 90% or more (almost completely withered))
M (Abutilon theophrasti) herbicidal effect grade [9]: 3 (Herbicidal ratio of 40% or more and less than 70%)
D (herbicidal effect grade) [10]: 5 (Herbicidal ratio of 90% or more (almost completely withered))
E (herbicidal effect grade) [11]: 5 (Herbicidal ratio of 90% or more (almost completely withered))
H (herbicidal effect grade) [12]: 4 (Herbicidal ratio of 70% or more and less than 90%)

CCN(C)c1nnc2c(C(=O)Nc3nnco3)ccc(C(F)(F)F)n12 [1-137]
L (Apera spica-venti.) herbicidal effect grade [1]: 4 (Herbicidal ratio of 70% or more and less than 90%)
F (Digitaria ciliaris) herbicidal effect grade [2]: 4 (Herbicidal ratio of 70% or more and less than 90%)
R (Veronica persica) herbicidal effect grade [3]: 5 (Herbicidal ratio of 90% or more (almost completely withered))
P (Stellaria media) herbicidal effect grade [4]: 5 (Herbicidal ratio of 90% or more (almost completely withered))
G (Setaria viridis) herbicidal effect grade [5]: 5 (Herbicidal ratio of 90% or more (almost completely withered))
N (Amaranthus retroflexus) herbicidal effect grade [6]: 4 (Herbicidal ratio of 70% or more and less than 90%)
J (Alopecurus myosuroides) herbicidal effect grade [7]: 2 (Herbicidal ratio of 20% or more and less than 40%)
O (Chenopodium album) herbicidal effect grade [8]: 5 (Herbicidal ratio of 90% or more (almost completely withered))
M (Abutilon theophrasti) herbicidal effect grade [9]: 3 (Herbicidal ratio of 40% or more and less than 70%)
D (herbicidal effect grade) [10]: 5 (Herbicidal ratio of 90% or more (almost completely withered))
E (herbicidal effect grade) [11]: 4 (Herbicidal ratio of 70% or more and less than 90%)
H (herbicidal effect grade) [12]: 5 (Herbicidal ratio of 90% or more (almost completely withered))
